This passage reports Activity, Drug uptake and IC50 results from ChEMBL document CHEMBL5550189, “Discovery of GS-7682, a Novel 4'-Cyano-Modified C-Nucleoside Prodrug with Broad Activity against Pneumo- and Picornaviruses and Efficacy in RSV-Infected African Green Monkeys” (J Med Chem, 2024).

Active and inactive are the calls of the source. No cut-off for these calls is given here.

The subject of data set [1] is Respiratory syncytial virus. As to the kind of experiment: Antiviral activity against RSV infected in African green monkey assessed as reduction in viral RNA copies in BAL at lung-deposited dose of 1.6 to 7.6 mg/kg, IT qd for 6 days measured for 3 to 11 days by RT-qPCR analysis. The data set is classed as functional, organism-based. The settings on record: dose 1.6-7.6 mg/kg, time 11.0 day.

A short description of data set [2]: Drug concentration in lung of Cynomolgous monkey at lung-deposited dose of 4 mg/kg, IT measured after 24 hrs by LC-MS/MS analysis. The data set is classed as ADME, organism-based, Macaca fascicularis. As to conditions: cynomolgus monkey, in vivo, other.
In data set [3] the test system is Respiratory syncytial virus. As to the kind of experiment: Antiviral activity against RSV A2 infected in Normal human bronchial epithelial cells assessed as inhibition of intracellular virus replication. As to conditions: A2, Epithelial cell. The data set is classed as functional, organism-based.

For the molecule `COC(=O)[C@H](C)N[P@](=O)(OC[C@@]1(C#N)O[C@@H](c2ccc3c(N)ncnn23)[C@H](OC(=O)C(C)C)[C@@H]1OC(=O)C(C)C)Oc1ccccc1`, the result in data set [1] was Active. For the same molecule, in data set [2], the Drug uptake is 20.5 nmol. The IC50 in data set [3] is less than 38 nM.
